# Reference: the C3SDB collision cross section collection
# Where “and” joins values, the source holds several entries; their conditions need not be identical. Equal entries are not always repeated.
# Key:
# [1] = instrument: TW, calibrated with phosphatidylcholines (ESI+) and phosphatidylethanolamines (ESI-)
# [2] = instrument: DT, stepped-field
# [3] = instrument: DT, single field, calibrated with Agilent tune mix (Agilent)
# [4] = [M+Na]+; instrument: DT; stepped-field
smiles,measurement,setting,value
CCCCCCCCCCCCC=CC[C@@H](O)[C@H](CO)NC(=O)CCCCCCCCCCCCCCCCCCCCC [Cer(d18:0/22:1)],collision cross section (N2),[1]; [M+H]+,271.9 Å²
CCCCCCCCCCCCC=CC[C@@H](O)[C@H](CO)NC(=O)CC=CCCCCCCCCCCCCCC [Cer(d18:1/18:1)],collision cross section (N2),[1]; [M+H]+,257.6 Å²
same,collision cross section (N2),[1]; [M-H]-,248.5 Å²
CCCCCCCCCCCCC=CC[C@@H](O)[C@H](CO[C@@H]1O[C@H](CO)[C@@H](O)C(O)C1O)NC(=O)CCCCCCCCCCCCCCCCC (some centres not stated) [GlcCer(36:1)],collision cross section (N2),[2]; [M+Na]+,286.7 Å²
same,collision cross section (N2),[3]; [M+HCOO]-,283.3 Å²
same,collision cross section (N2),[3]; [M+H]+,284.1 Å²
same,collision cross section (N2),[3]; [M+Na]+,283.5 Å²
CCCCCCCCCCCCC=CC[C@@H](O)[C@H](CO[C@@H]1O[C@H](CO)[C@@H](O)C(O)C1O)NC(=O)CCCCCCCCCCCCCCCCCCCCC (some centres not stated) [GlcCer(40:1)],collision cross section (N2),[2]; [M+Na]+,301.1 Å²
same,collision cross section (N2),[3]; [M+HCOO]-,294.5 Å²
same,collision cross section (N2),[3]; [M+H]+,295.1 Å²
same,collision cross section (N2),[3]; [M+Na]+,296.5 Å²
CCCCCCCCCCCCC=CC[C@@H](O)[C@H](CO[C@@H]1O[C@H](CO)[C@@H](O)C(O)C1O)NC(=O)CCCCCCCCCCCCCCCCCCCCCC (some centres not stated) [GlcCer(41:1)],collision cross section (N2),[2]; [M+Na]+,302.5 Å²
same,collision cross section (N2),[3]; [M+H]+,298.5 Å²
CCCCCCCCCCCCC=CC[C@@H](O)[C@H](CO[C@@H]1O[C@H](CO)[C@@H](O)C(O)C1O)NC(=O)CCCCCCCCCCCCCCCCCCCCCCC (some centres not stated) [GlcCer(42:1)],collision cross section (N2),[2]; [M+Na]+,307.5 Å²
same,collision cross section (N2),[3]; [M+HCOO]-,299.4 Å²
same,collision cross section (N2),[3]; [M+H]+,301.5 Å²
same,collision cross section (N2),[3]; [M+Na]+,302.8 Å²
OC[C@H]1O[C@@](CO)(O[C@H]2O[C@H](CO)[C@@H](O)[C@H](O)[C@H]2O)[C@@H](O[C@H]2O[C@H](CO)[C@@H](O)[C@H](O)[C@H]2O)[C@@H]1O [Melezitose],collision cross section (N2),[2]; [M+Cs]+,205.8 Å²
same,collision cross section (N2),[2]; [M+H]+,202.6 Å²
same,collision cross section (N2),[2]; [M+K]+,221.9 Å²
same,collision cross section (N2),[2]; [M+Li]+,202.9 Å²
same,collision cross section (N2),[2]; [M+Na]+,202.7 Å²
same,collision cross section (N2),[2]; [M+Rb]+,204.1 Å² and 219.2 Å²
same,collision cross section (N2),[4],203.23 Å²
CCCCCCC/C=C\CCCCCCCC(=O)OC[C@H](COP(=O)([O-])OCC[N+](C)(C)C)OC(=O)CCCCCCC/C=C\CCCCCCCC [PC(35:2)],collision cross section (N2),[2]; [M+K]+,297.7 Å²
same,collision cross section (N2),[3]; [M+H]+,286.4 Å²
CCCC/C=C\CCCCCCCC(=O)OC[C@H](COP(=O)(O)OCCN)OC(=O)CCCCC/C=C\C/C=C\C/C=C\C/C=C\CCCCC [PE(36:5)],collision cross section (N2),[2]; [M+Na]+,278.2 Å²
CC/C=C\C/C=C\C/C=C\C/C=C\CCCCC(=O)O[C@H](COC(=O)CCCCCCC/C=C\C/C=C\CCCCC)COP(=O)(O)OCCN [PE(36:6)],collision cross section (N2),[2]; [M+Na]+,276.3 Å²
CC/C=C\C/C=C\C/C=C\C/C=C\CCCCC(=O)O[C@H](COC(=O)CCC/C=C\C/C=C\C/C=C\C/C=C\CCCCC)COP(=O)(O)OCCN [PE(38:8)],collision cross section (N2),[2]; [M+Na]+,281.9 Å²
CCCCC/C=C\C/C=C\CCCCCCCCCC(=O)OC[C@H](COP(=O)(O)OCCN)OC(=O)CCCCCCCCCCCCCCCCCC [PE(39:2)],collision cross section (N2),[2]; [M+K]+,295.9 Å²
CCCCC/C=C\C/C=C\CCCCCCCCCC(=O)O[C@H](COC(=O)CCCCCCC/C=C\CCCCCCCCC)COP(=O)(O)OCCN [PE(39:3)],collision cross section (N2),[2]; [M+K]+,293.4 Å²
CCCCC/C=C\C/C=C\C/C=C\C/C=C\CCCCCC(=O)O[C@H](COC(=O)CCCCCCCCCCCCCCCC)COP(=O)(O)OCCN [PE(39:4)],collision cross section (N2),[2]; [M+Na]+,292.8 Å²
